# Test: Dynamic vapor sorption (DVS) hygroscopicity
# Assay type: physicochemical
# Procedure: Hygroscopicity was studied using dynamic vapor sorption (DVS, TA Q5000 SA, TA Instruments, New Castle, DE or DVS, DVS Intrinsic, Surface Measurement Systems, London, UK). A sample (2-20 mg) was placed in an aluminum DVS pan and loaded on the sample side of the twin pan balance. The water sorption and desorption were studied as a function of relative humidity (RH) at 25° C. In 10% RH increments, the relative humidity was increased from 5% RH to 95% RH and then decreased back to 5%. […] Data analysis was performed using Universal Analysis 2000 Version 4.7A (TA Instruments, New Castle, DE) for TA DVS runs and Microsoft Excel for SMS DVS runs.
smiles,measurement,setting,value
"C[C@H](C#N)Nc1cc(-c2ccc3cc(C#N)cnn23)ncc1C(=O)NC[C@@H](F)C(C)(C)O [Form IV, 4-(((R)-1-cyanoethyl)amino)-6-(3-cyanopyrrolo[1,2-b]pyridazin-7-yl)-N—((R)-2-fluoro-3-hydroxy-3-methylbutyl)nicotinamide]",water absorbed (DVS analysis),25° C. and 95% RH,less than 0.1 wt %
same,hygroscopicity (DVS analysis),"25° C., up to 95% RH",non-hygroscopic
same,form change by XRPD analysis of the sample post DVS analysis,post DVS,no form change

# From patent US20250034154A1, “SALTS AND SOLID FORMS OF A COMPOUND THAT MODULATES IRAK4” (Gilead Sciences, Inc., priority 2023, published 2025)
